Data taken from ChEMBL document CHEMBL1130110 (J Med Chem, 1997).

Columns and labels:
Glucagon receptor [1] = biological target: T1, Glucagon receptor (Rattus norvegicus, UniProt P30082); assay: Effective concentration was determined in cAMP accumulation assay using isolated hepatocytes in the presence rolipram.; type: functional, cell-based; details: hepatocyte
Glucagon receptor [2] = biological target: T1, Glucagon receptor; assay: pA2 value against Glucagon Receptor; details: read-out: pA2 (converted)
Glucagon receptor [3] = biological target: T1, Glucagon receptor; assay: Binding affinity towards Glucagon receptor in rat liver plasma membranes by displacement of 125 I-labelled glucagon; type: cell membranes

T1 sequence (P30082 whole entry): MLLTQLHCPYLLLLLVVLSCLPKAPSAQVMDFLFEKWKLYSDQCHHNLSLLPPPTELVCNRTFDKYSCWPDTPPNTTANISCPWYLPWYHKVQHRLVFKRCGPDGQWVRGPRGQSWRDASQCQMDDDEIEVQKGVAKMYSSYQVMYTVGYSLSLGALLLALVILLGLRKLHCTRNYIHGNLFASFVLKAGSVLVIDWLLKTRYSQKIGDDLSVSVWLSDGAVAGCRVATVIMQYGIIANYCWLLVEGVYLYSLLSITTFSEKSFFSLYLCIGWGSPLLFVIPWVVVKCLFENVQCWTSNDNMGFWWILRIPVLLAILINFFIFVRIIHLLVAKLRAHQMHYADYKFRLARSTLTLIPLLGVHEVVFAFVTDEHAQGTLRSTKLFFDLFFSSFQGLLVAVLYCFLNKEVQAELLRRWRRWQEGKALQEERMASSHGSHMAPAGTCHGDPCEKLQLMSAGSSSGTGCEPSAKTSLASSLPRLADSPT

EC50 (Glucagon receptor [1]) | Kb (Glucagon receptor [2]) [nM] | IC50 (Glucagon receptor [3]) [nM] | SMILES
Not Active |  |  | CSCC[C@H](NC(=O)[C@H](CC(C)C)NC(=O)[C@H](Cc1c[nH]c2ccccc12)NC(=O)[C@H](CCC(N)=O)NC(=O)[C@@H](NC(=O)[C@H](Cc1ccccc1)NC(=O)[C@H](CC(=O)O)NC(=O)[C@H](CCC(N)=O)NC(=O)[C@H](C)NC(=O)[C@H](CCCN=C(N)N)NC(=O)[C@H](CCCN=C(N)N)NC(=O)[C@H](CO)NC(=O)[C@H](CC(=O)O)NC(=O)[C@H](CC(C)C)NC(=O)[C@H](Cc1ccc(O)cc1)NC(=O)[C@H](CCCCN)NC(=O)[C@H](CO)NC(=O)[C@H](Cc1ccc(O)cc1)NC(=O)[C@H](CCC(=O)O)NC(=O)[C@H](CO)NC(=O)[C@@H](NC(=O)[C@H](C)NC(=O)[C@@H](NC(=O)CNC(=O)[C@H](CCC(N)=O)NC(=O)[C@@H](N)CO)[C@@H](C)O)[C@@H](C)O)C(C)C)C(=O)N[C@@H](CC(N)=O)C(=O)N[C@H](C(N)=O)[C@@H](C)O
Not Active | 562 | 19 | CSCC[C@H](NC(=O)[C@H](CC(C)C)NC(=O)[C@H](Cc1c[nH]c2ccccc12)NC(=O)[C@H](CCC(N)=O)NC(=O)[C@@H](NC(=O)[C@H](Cc1ccccc1)NC(=O)[C@H](CC(=O)O)NC(=O)[C@H](CCC(N)=O)NC(=O)[C@H](C)NC(=O)[C@H](CCCN=C(N)N)NC(=O)[C@H](CCCN=C(N)N)NC(=O)[C@H](CO)NC(=O)[C@H](CC(=O)O)NC(=O)[C@H](CC(C)C)NC(=O)[C@H](Cc1ccc(O)cc1)NC(=O)[C@H](CCCCN)NC(=O)[C@H](CO)NC(=O)[C@H](Cc1ccc(O)cc1)NC(=O)[C@H](CCC(=O)O)NC(=O)[C@H](CO)NC(=O)[C@@H](NC(=O)[C@H](Cc1c[nH]c2ccccc12)NC(=O)[C@@H](NC(=O)CNC(=O)[C@H](CCC(N)=O)NC(=O)[C@@H](N)CO)[C@@H](C)O)[C@@H](C)O)C(C)C)C(=O)N[C@@H](CC(N)=O)C(=O)N[C@H](C(N)=O)[C@@H](C)O
Not Active | 562 | 128 | CSCC[C@H](NC(=O)[C@H](CC(C)C)NC(=O)[C@H](Cc1c[nH]c2ccccc12)NC(=O)[C@H](CCC(N)=O)NC(=O)[C@@H](NC(=O)[C@H](Cc1ccccc1)NC(=O)[C@H](CC(=O)O)NC(=O)[C@H](CCC(N)=O)NC(=O)[C@H](C)NC(=O)[C@H](CCCN=C(N)N)NC(=O)[C@H](CCCN=C(N)N)NC(=O)[C@H](CO)NC(=O)[C@H](CC(=O)O)NC(=O)[C@H](CC(C)C)NC(=O)[C@H](Cc1ccc(O)cc1)NC(=O)[C@H](CCCCN)NC(=O)[C@H](CO)NC(=O)[C@H](Cc1ccc(O)cc1)NC(=O)[C@H](CC(=O)O)NC(=O)[C@H](CO)NC(=O)[C@@H](NC(=O)[C@@H](NC(=O)CNC(=O)[C@H](CCC(N)=O)NC(=O)[C@@H](N)CO)[C@@H](C)O)[C@@H](C)O)C(C)C)C(=O)N[C@@H](CC(N)=O)C(=O)N[C@H](C(N)=O)[C@@H](C)O
 | 891 | 52 | CSCC[C@H](NC(=O)[C@H](CC(C)C)NC(=O)[C@H](Cc1c[nH]c2ccccc12)NC(=O)[C@H](CCC(N)=O)NC(=O)[C@@H](NC(=O)[C@H](Cc1ccccc1)NC(=O)[C@H](CC(=O)O)NC(=O)[C@H](CCC(N)=O)NC(=O)[C@H](C)NC(=O)[C@H](CCCN=C(N)N)NC(=O)[C@H](CCCN=C(N)N)NC(=O)[C@H](CO)NC(=O)[C@H](CC(=O)O)NC(=O)[C@H](CC(C)C)NC(=O)[C@H](Cc1ccc(O)cc1)NC(=O)[C@H](CCCCN)NC(=O)[C@H](CO)NC(=O)[C@H](Cc1ccc(O)cc1)NC(=O)[C@H](CCC(=O)O)NC(=O)[C@H](CO)NC(=O)[C@@H](NC(=O)[C@H](Cc1ccccc1)NC(=O)[C@@H](NC(=O)[C@H](CCC(N)=O)NC(=O)[C@@H](N)CO)[C@@H](C)O)[C@@H](C)O)C(C)C)C(=O)N[C@@H](CC(N)=O)C(=O)N[C@H](C(N)=O)[C@@H](C)O
Not Active |  |  | CSCC[C@H](NC(=O)[C@H](CC(C)C)NC(=O)[C@H](Cc1c[nH]c2ccccc12)NC(=O)[C@H](CCC(N)=O)NC(=O)[C@@H](NC(=O)[C@H](Cc1ccccc1)NC(=O)[C@H](CC(=O)O)NC(=O)[C@H](CCC(N)=O)NC(=O)[C@H](C)NC(=O)[C@H](CCCN=C(N)N)NC(=O)[C@H](CCCN=C(N)N)NC(=O)[C@H](CO)NC(=O)[C@H](CC(=O)O)NC(=O)[C@H](CC(C)C)NC(=O)[C@H](Cc1ccc(O)cc1)NC(=O)[C@H](CCCCN)NC(=O)[C@H](CO)NC(=O)[C@H](Cc1ccc(O)cc1)NC(=O)[C@H](CCC(=O)O)NC(=O)[C@H](CO)NC(=O)[C@@H](NC(=O)[C@@H](NC(=O)CNC(=O)[C@H](CCC(N)=O)NC(=O)[C@@H](N)CO)[C@@H](C)O)[C@@H](C)O)C(C)C)C(=O)N[C@@H](CC(N)=O)C(=O)N[C@H](C(=O)O)[C@@H](C)O (stereo in doubt; 13)
 | 501 | 2000 | CSCC[C@H](NC(=O)[C@H](CC(C)C)NC(=O)[C@H](Cc1c[nH]c2ccccc12)NC(=O)[C@H](CCC(N)=O)NC(=O)[C@@H](NC(=O)[C@H](Cc1ccccc1)NC(=O)[C@H](CC(=O)O)NC(=O)[C@H](CCC(N)=O)NC(=O)[C@H](C)NC(=O)[C@H](CCCNC(=N)N)NC(=O)[C@H](CCCNC(=N)N)NC(=O)[C@H](CO)NC(=O)[C@H](CC(=O)O)NC(=O)[C@H](CC(C)C)NC(=O)[C@H](Cc1ccc(O)cc1)NC(=O)[C@H](CCCCN)NC(=O)[C@H](CO)NC(=O)[C@H](Cc1ccc(O)cc1)NC(=O)[C@H](CCC(=O)O)NC(=O)[C@H](CO)NC(=O)[C@@H](NC(=O)[C@H](CC(=O)O)NC(=O)[C@@H](NC(=O)CNC(=O)[C@H](CCC(N)=O)NC(=O)[C@@H](N)CO)[C@@H](C)O)[C@@H](C)O)C(C)C)C(=O)N[C@@H](CC(N)=O)C(=O)N[C@H](C(N)=O)[C@@H](C)O
 | 794 | 1000 | CSCC[C@H](NC(=O)[C@H](CC(C)C)NC(=O)[C@H](Cc1c[nH]c2ccccc12)NC(=O)[C@H](CCC(N)=O)NC(=O)[C@@H](NC(=O)[C@H](Cc1ccccc1)NC(=O)[C@H](CC(=O)O)NC(=O)[C@H](CCC(N)=O)NC(=O)[C@H](C)NC(=O)[C@H](CCCNC(=N)N)NC(=O)[C@H](CCCNC(=N)N)NC(=O)[C@H](CO)NC(=O)[C@H](CC(=O)O)NC(=O)[C@H](CC(C)C)NC(=O)[C@H](Cc1ccc(O)cc1)NC(=O)[C@H](CCCCN)NC(=O)[C@H](CO)NC(=O)[C@H](Cc1ccc(O)cc1)NC(=O)[C@H](CCC(=O)O)NC(=O)[C@H](CO)NC(=O)[C@@H](NC(=O)[C@@H](NC(=O)CNC(=O)[C@H](CCC(N)=O)NC(=O)[C@@H](N)CO)[C@@H](C)O)[C@@H](C)O)C(C)C)C(=O)N[C@@H](CC(N)=O)C(=O)N[C@H](C(=O)O)[C@@H](C)O (stereo in doubt; 12)
Not Active |  |  | CC(C)C[C@H](NC(=O)[C@H](Cc1ccc(O)cc1)NC(=O)[C@H](CCCCN)NC(=O)[C@H](CO)NC(=O)[C@H](Cc1ccc(O)cc1)NC(=O)[C@H](CC(=O)O)NC(=O)[C@H](CO)NC(=O)[C@@H](NC(=O)[C@@H](NC(=O)CNC(=O)[C@H](CCC(N)=O)NC(=O)[C@H](CO)NC(=O)[C@@H](N)Cc1c[nH]cn1)[C@@H](C)O)[C@@H](C)O)C(=O)N[C@@H](CC(=O)O)C(=O)N[C@@H](CO)C(=O)N[C@@H](CCCN=C(N)N)C(=O)N[C@@H](CCCN=C(N)N)C(=O)N[C@@H](C)C(=O)N[C@@H](CCC(N)=O)C(=O)N[C@@H](CC(=O)O)C(=O)N[C@@H](Cc1ccccc1)C(=O)N[C@H](C(=O)N[C@@H](CCC(N)=O)C(=O)N[C@@H](Cc1c[nH]c2ccccc12)C(=O)N[C@@H](CC(C)C)C(=O)N[C@@H](CCS)C(=O)N[C@@H](CC(N)=O)C(=O)N[C@H](C=O)[C@@H](C)O)C(C)C
Not Active |  |  | CSCC[C@H](NC(=O)[C@H](CC(C)C)NC(=O)[C@H](Cc1c[nH]c2ccccc12)NC(=O)[C@H](CCC(N)=O)NC(=O)[C@@H](NC(=O)[C@H](Cc1ccccc1)NC(=O)[C@H](CC(=O)O)NC(=O)[C@H](CCC(N)=O)NC(=O)[C@H](C)NC(=O)[C@H](CCCN=C(N)N)NC(=O)[C@H](CCCN=C(N)N)NC(=O)[C@H](CO)NC(=O)[C@H](CC(=O)O)NC(=O)[C@H](CC(C)C)NC(=O)[C@H](Cc1ccc(O)cc1)NC(=O)[C@H](CCCCN)NC(=O)[C@H](CO)NC(=O)[C@H](Cc1ccc(O)cc1)NC(=O)[C@H](CC(=O)O)NC(=O)[C@H](CO)NC(=O)[C@@H](NC(=O)[C@@H](NC(=O)CNC(=O)[C@H](CCC(N)=O)NC(=O)[C@@H](N)CO)[C@@H](C)O)[C@@H](C)O)C(C)C)C(=O)N[C@@H](CC(N)=O)C(=O)N[C@H](C(=O)O)[C@@H](C)O
Not Active |  |  | CSCC[C@H](NC(=O)[C@H](CC(C)C)NC(=O)[C@H](Cc1c[nH]c2ccccc12)NC(=O)[C@H](CCC(N)=O)NC(=O)[C@@H](NC(=O)[C@H](Cc1ccccc1)NC(=O)[C@H](CC(=O)O)NC(=O)[C@H](CCC(N)=O)NC(=O)[C@H](C)NC(=O)[C@H](CCCN=C(N)N)NC(=O)[C@H](CCCN=C(N)N)NC(=O)[C@H](CO)NC(=O)[C@H](CC(=O)O)NC(=O)[C@H](CC(C)C)NC(=O)[C@H](Cc1ccc(O)cc1)NC(=O)[C@H](CCCCN)NC(=O)[C@H](CO)NC(=O)[C@H](Cc1ccc(O)cc1)NC(=O)[C@H](CCC(=O)O)NC(=O)[C@H](CO)NC(=O)[C@@H](NC(=O)[C@@H](NC(=O)CNC(=O)[C@H](CCC(N)=O)NC(=O)[C@@H](N)CO)[C@@H](C)O)[C@@H](C)O)C(C)C)C(=O)N[C@@H](CC(N)=O)C(=O)N[C@H](C(N)=O)[C@@H](C)O
Not Active |  |  | CSCC[C@H](NC(=O)[C@H](CC(C)C)NC(=O)[C@H](Cc1c[nH]c2ccccc12)NC(=O)[C@H](CCC(N)=O)NC(=O)[C@@H](NC(=O)[C@H](Cc1ccccc1)NC(=O)[C@H](CC(=O)O)NC(=O)[C@H](CCC(N)=O)NC(=O)[C@H](C)NC(=O)[C@H](CCCN=C(N)N)NC(=O)[C@H](CCCN=C(N)N)NC(=O)[C@H](CO)NC(=O)[C@H](CC(=O)O)NC(=O)[C@H](CC(C)C)NC(=O)[C@H](Cc1ccc(O)cc1)NC(=O)[C@H](CCCCN)NC(=O)[C@H](CO)NC(=O)[C@H](Cc1ccc(O)cc1)NC(=O)[C@H](CCC(=O)O)NC(=O)[C@H](CO)NC(=O)[C@@H](NC(=O)[C@H](CC(=O)O)NC(=O)[C@@H](NC(=O)CNC(=O)[C@H](CCC(N)=O)NC(=O)[C@@H](N)CO)[C@@H](C)O)[C@@H](C)O)C(C)C)C(=O)N[C@@H](CC(N)=O)C(=O)N[C@H](C(N)=O)[C@@H](C)O
